According to BindingDB's records for doi:10.1021/acs.jmedchem.6b00788 (University of Pittsburgh, 2017):

Assay: Inhibition of TNFalpha-PLAP (unknown origin)

Row | IC50 | Compound
1 | > 10000 nM | COc1cc(O)c2c(c1)/C=C/C[C@H](O)[C@H](O)C(=O)/C=C(/C)C[C@H](C)OC2=O
2 | 36 nM | COc1cc(O)c2c(c1)/C=C/C[C@H](O)[C@H](O)C(=O)/C(F)=C\C[C@H](C)OC2=O
